# Test results taken from publication PMC6760105, “Construction of a novel quinoxaline as a new class of Nrf2 activator” (BMC Chemistry, 2019).
# Tests used:
# RAW 264.7 cells [1] = assay: MTT cell viability assay; type: cell-based, mouse; details: for cytotoxic effects on RAW 264.7 cells (MTT): LPSEc stimulated
# Description: (§1) Murine macrophages, cell line: RAW 264.7 was procured from ATCC, USA. The macrophage cells were grown and cultured in Dulbecco’s Modified Eagle Medium (DMEM) supplemented with 10% Fetal Bovine serum (FBS) and 1% PenStrep and incubated in a 5% CO2 at 37 °C incubator. Cells from passages 10 to 20 were used for subsequent experiments.
# A calorimetric agent (3-(4,5-Dimethylthiazol-2-yl)-2,5-Diphenyltetrazolium Bromide) (MTT) was used to as an assay to determine cell viability after being exposed to NQC. RAW 264.7 cells were seeded in a 96-well microplate at 3 × 10^5 cells/well and were allowed to grow and adhere for 24 h in a 37 °C, 5% CO2 incubator. NQC was dissolved in DMSO and diluted with PBS to produce the required test concentrations (100, 50, 25, 12.5, 6.25 and 3.125 µM). The negative control is 0.1% (v/v) DMSO, which is the maximum effective concentration of DMSO in a well. The cells were treated with either NQC or 0.1% (v/v) DMSO for 4 h followed by 1 µg/mL LPSEc and incubated further for 20 h. MTT solution was added at 100 µL per well under dark condition and the cells were incubated further for 4 h. Upon completion of incubation, the contents in all wells were aspirated and DMSO was added at 100 µL per well. The absorbance was measured at 570 nm using Molecular Devices Spectramax M3 Multi-Mode microplate reader; Sunnyvale, CA, USA. The cells without any treatment was used as a control. MTT assay was performed in triplicate. The percent cell viability is calculated using the following equation: PercentCellViabilty=AbsorbanceofVehicleorTD-1treatedgroupwell/AbsorbanceofControlwell×100.
# RAW 264.7 cells [2] = assay: Nitric oxide (nitrite) production, Griess reagent, LPSEc stimulated cells; type: cell-based; details: Mus musculus, RAW264.7; LPSEc (1 µg/mL) stimulated RAW 264.7 cells; 4 h pretreatment, 20 h LPS; read-out: IC50, NO production
# Description: as §1
# RAW 264.7 cells were seeded in a 96-well microplate at 3 × 10^5 cells/well with complete media. The cells were allowed grow and adhere for 24 h. The cells were treated with NQC (50, 25, 12.5, 6.25 and 3.125 µM) and negative control (0.1% v/v DMSO in water) for 4 h prior to LPSEc (1 µg/mL) and allowed to incubate for 20 h at 37 °C, 5% CO2 incubator. Nitrite exist as a stable metabolite of nitric oxide, thus nitrite present in the supernatant was quantitatively measured as a chemical marker of nitric oxide (NO) production using Griess reagent (Promega, USA; 0.1% naphthylethylenediamine dihydrochloride and 1% sulfanilamide in 2.5% phosphoric acid). This assay was carried out following the manufacturer’s protocol where 100 µL of cell supernatant sample was incubated with 100 µL of Griess reagent at room temperature for 10 min and the absorbance at 540 nm was measured using Molecular Devices Spectramax M3 Multi-Mode microplate reader. […]
# RAW 264.7 cells [3] = assay: IL-1β production, ELISA, LPSEc stimulated cells; type: cell-based; details: Mus musculus, RAW264.7, LPSEc (1 µg/mL) stimulated RAW 264.7 cells
# Description: as §1
# (§2) Production of IL-1β, IL-6, PGE2− and TNF-α in RAW 264.7 cells were quantitatively measured using an enzyme-linked immunosorbent assay (ELISA). The cells were incubated with 0.1% DMSO or NQC for 4 h, then stimulated with LPSEc, 1 µg/mL, for 20 h. The production of pro-inflammatory cytokines (IL-1β, IL-6) and TNF-α were determined using commercial ELISA kit (RayBio) according to the manufacturer’s instructions in product insert. The absorbance was measured at 540 nm. All the experiments were performed in triplicate.
# RAW 264.7 cells [4] = assay: IL-6 production, ELISA, LPSEc stimulated cells; type: cell-based; details: Mus musculus, RAW264.7, LPSEc (1 µg/mL) stimulated RAW 264.7 cells
# Description: as §1, §2
# RAW 264.7 cells [5] = assay: TNF-α production, ELISA, LPSEc stimulated cells; type: cell-based; details: Mus musculus, RAW264.7, LPSEc (1 µg/mL) stimulated RAW 264.7 cells
# Description: as §1, §2
# RAW 264.7 cells [6] = assay: PGE2 production, ELISA, LPSEc stimulated cells; type: cell-based; details: Mus musculus, RAW264.7, LPSEc (1 µg/mL) stimulated RAW 264.7 cells
# Description: as §1, §2
# Nrf2-Keap1 interaction = target: T1, Nrf2-Keap1 interaction (Homo sapiens, UniProt Q14145); assay: Keap1:Nrf2 Inhibitor Screening Assay Kit (Nrf2 activation assay); type: binding; details: fluorescence λex 485 nm, λem 530 nm; 100 µM to 1 nM; read-out: IC50, inhibition of Nrf2-Keap1 interaction
# T1 construct: purchased BPS Bioscience, USA
# T1 sequence (Q14145 whole entry): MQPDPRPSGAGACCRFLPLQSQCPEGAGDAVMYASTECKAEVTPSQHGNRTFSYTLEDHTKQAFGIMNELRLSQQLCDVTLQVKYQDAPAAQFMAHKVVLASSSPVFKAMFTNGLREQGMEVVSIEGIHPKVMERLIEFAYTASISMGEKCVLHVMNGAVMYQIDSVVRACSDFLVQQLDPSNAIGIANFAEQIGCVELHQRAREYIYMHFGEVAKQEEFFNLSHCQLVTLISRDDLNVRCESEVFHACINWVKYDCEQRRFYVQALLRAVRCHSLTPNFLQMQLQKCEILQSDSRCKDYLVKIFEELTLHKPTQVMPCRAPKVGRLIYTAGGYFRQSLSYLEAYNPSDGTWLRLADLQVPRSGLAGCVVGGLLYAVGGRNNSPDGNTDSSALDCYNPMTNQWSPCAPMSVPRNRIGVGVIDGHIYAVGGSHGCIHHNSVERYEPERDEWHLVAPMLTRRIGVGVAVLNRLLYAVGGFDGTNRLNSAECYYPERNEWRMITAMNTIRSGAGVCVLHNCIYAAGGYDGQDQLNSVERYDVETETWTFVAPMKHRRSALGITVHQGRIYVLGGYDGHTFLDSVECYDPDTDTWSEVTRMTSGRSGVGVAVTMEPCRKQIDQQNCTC
# Description: The Nrf2 activation by NQC was determined using ‘Keap1:Nrf2 Inhibitor Screening Assay Kit’ (BPS Bioscience, USA) following the instructions in product insert. The NQC was dissolved in DMSO and diluted with assay buffer provided in the kit to produce the concentrations range, 100 µM to 1 nM. The fluorescence of the solutions in each well of 96-well plate was measured at λex 485 nm and λem 530 nm. The dose–response curve was constructed plotting percent reduction in Kepa1-Nrf2 binding activity versus log concentration of NQC. From dose–response curve IC50 value was calculated.
# [7] = Microsomal metabolic stability, human liver microsomes; type: in vitro ADME; details: NQC 1 µM
# Description: (§3) A stock solution (SS) of NQC at 1 mM was prepared using 100% dimethyl sulfoxide. Working solution of 10 μM was further prepared by dilution of SS with 25% ACN and 50 mM tris–HCl buffer (pH 7.4). In a 96-well plate, NQC (effective concentration:1 µM) was incubated with phosphate buffer (pH7.4) and 0.5 mg/mL of liver microsomes (human, rat and mouse) at 37 °C in an incubation. Each NQC incubation with liver microsomes was performed in triplicates. The microsomal metabolic reaction was initiated by the addition of co-factor, NADPH (5 mM). Samples following the allotted time-point was drawn and quenched into a solution of acetonitrile containing 50 ng/mL internal standard. The sample was analysed by a developed HPLC method that has been validated for lower limit of quantification, linearity, precision, selectivity and accuracy according to FDA guidance.
# (§4) Half-life of NQC was calculated using the equation: T1/2=0.693/K.
# (§5) The in vitro microsomal intrinsic clearance (CLint) was calculated based on the equation below: Clint=0.693/invitrot(1/2)×mlincubation/mgmicrosome×52.5mgmicrosome/gliver×[…].
# [8] = Microsomal metabolic stability, rat liver microsomes; type: in vitro ADME; details: NQC 1 µM
# Description: as §3, §4, §5
# [9] = Microsomal metabolic stability, mouse liver microsomes; type: in vitro ADME; details: NQC 1 µM
# Description: as §3, §4, §5
compound,measurement,setting,value
"O=C(NNC(=O)c1cnc2ccccc2n1)c1cccnc1 [NQC, N′-(Pyridine-3-carbonyl)quinoxaline-2-carbohydrazide]",cytotoxic effects on RAW 264.7 cells (MTT),"RAW 264.7 cells [1]; 100 µM, P < 0.05",significant toxicity
same,cytotoxic effects on RAW 264.7 cells (MTT),"RAW 264.7 cells [1]; 3.125–50 µM, P > 0.05",do not show cytotoxic effects
same,toxicity on RAW 264.7 cells,RAW 264.7 cells [1]; dose of 50 µM,non-toxic
same,IC50,RAW 264.7 cells [2],26.1 ± 1.17 µM
same,IC50,RAW 264.7 cells [3],13.3 ± 2.37 µM
same,IC50,RAW 264.7 cells [4],10.1 ± 0.58 µM
same,IC50,RAW 264.7 cells [5],14.4 ± 1.83 µM
same,IC50,RAW 264.7 cells [6],15.2 ± 0.91 µM
same,IC50,Nrf2-Keap1 interaction,4.21 ± 0.89 µM
same,Rate of metabolism,[7]; human liver microsomes,0.011 min⁻¹
same,microsomal intrinsic clearance (CLint),[7]; human liver microsomes,1.14 ± 0.31 mL/min/g liver
same,mCint (microsomal intrinsic clearance),"[7]; human liver microsomes, Table 1",1.14 ± 0.31 mL/min/g liver
same,half-life at 1 µM,"[7]; pH 7.4, human liver microsomes 0.5 mg/mL, NADPH, 37 °C",63.3 ± 1.73 min
same,T1/2,"[8]; rat liver microsomes 0.5 mg/mL, NADPH, 37 °C",52.23 ± 0.81 min
same,Rate of metabolism,[8]; rat liver microsomes,0.013 min⁻¹
same,microsomal intrinsic clearance (CLint),[8]; rat liver microsomes,1.39 ± 0.87 mL/min/g liver
same,mCint (microsomal intrinsic clearance),"[8]; rat liver microsomes, Table 1",1.39 ± 0.87 mL/min/g liver
same,half-life at 1 µM,"[8]; rat, liver microsomes, pH 7.4, rat liver microsomes 0.5 mg/mL, NADPH, 37 °C",52.3 ± 0.81 min
same,Rate of metabolism,[9]; mouse liver microsomes,0.028 min⁻¹
same,microsomal intrinsic clearance (CLint),[9]; mouse liver microsomes,2.96 ± 0.34 mL/min/g liver
same,mCint (microsomal intrinsic clearance),"[9]; mouse liver microsomes, Table 1",2.96 ± 0.34 mL/min/g liver
same,half-life at 1 µM,"[9]; pH 7.4, mouse liver microsomes 0.5 mg/mL, NADPH, 37 °C",24.6 ± 1.13 min
